Assay results: paper PMC11093748, “De novo identification of CD4^+ T cell epitopes” (Nature Methods, 2024)

Key:
[1] = system: 4-8Ins TCR; test: I-Ag7 SABR-II library screen, enrichment score; format: cell-based, mouse
From the text: (§1) We then asked whether SABR-IIs could be used to present a library of epitopes for CD4^+ T cell antigen discovery. To that end, we constructed a SABR-II library to present epitopes derived from pancreatic islets in I-Ag7 by curating a list of 4,075 published epitopes from the Immune Epitope Database (iedb.org)[50] and a study by Wan et al.[51] (Supplementary Table 1). Of note, this defined library consisted of unmodified epitopes from endogenous proteins, synthetic mimotopes, deamidated epitopes and hybrid insulin peptides (HIPs) that arise from post-translational fusion and are not genetically encoded in vivo[52],[53]. The epitope library was inserted into the I-Ag7 SABR-II backbone through pooled oligonucleotide synthesis, amplification and ligation-free cloning (Extended Data Fig. 3a). The I-Ag7 SABR-II-library was then expressed in NFAT–GFP Jurkat cells. We confirmed that after sequencing, the library accounted for a mean of 708 reads per epitope (Extended Data Fig. 3b). As a proof of concept, we performed co-incubation assays with Jurkat cells expressing the BDC2.5 TCR and sorted the top 1–2% of GFP^+CD69^+ cells at a rate of ~20 min per replicate with three replicates per TCR. We extracted the genomic DNA from sorted cells, amplified the SABR portion of the integrated proviruses and subjected the amplicons to Illumina sequencing (Extended Data Fig. 3c,d). The 1–2% sort gate represents >50-fold enrichment of cognate epitopes with minimal loss of signal (Extended Data Fig. 3e–h). Sequence reads were aligned to the I-Ag7 SABR-II backbone and the corresponding epitopes were scored based on their read counts. For each TCR under investigation, an enrichment score (ES) was determined for all the epitopes in a library. In each experiment, three replicates of a sort with TCR-expressing Jurkat cells were performed and reads were counted post-sequencing. In addition, three replicates of the unsorted library were also sequenced. A linear regression model was built using the unsorted library counts and used to determine the expected abundance of each epitope in the library. The ES was calculated based on the difference between the measured and the expected abundance of each epitope on a per-TCR basis (Fig. 1e). Based on ES values, two quantitative thresholds were used to determine putative cognate epitopes of a given TCR. A high-confidence zone containing clear outliers with a high ES and a low-confidence zone containing weak outliers with a moderately high ES were determined (Fig. 1e). This two-tiered strategy was used to call putative hits from screens. All the top-scoring epitopes for the BDC2.5 TCR were known BDC2.5 ligands containing the WXRM(D/E) motif (Fig. 1f,g, enriched ligands in red), a well-characterized trait of the BDC2.5 TCR[43],[54]–[56]. Across several independent experiments there was limited variation in ES values for the same TCRs and several epitopes fell into high- or low-confidence zones consistently (Extended Data Fig. 4a). Using a different TCR that was isolated from NOD mice, 4-8Ins[57], which recognized the InsB9:23 epitope ([…]), we observed a similar pattern of ES for cognate epitopes (Extended Data Fig. 4b).
(§2) For SABR library screens, 3 × 10^6 NFAT–GFP Jurkat cells expressing the SABR library were labeled with CellTrace Violet (BioLegend) according to the manufacturer’s protocol before incubation with 3 × 10^6 Jurkat cells expressing the TCR of interest. These mixtures were incubated in a six-well plate for 16–20 h. Cells were stained with anti-CD69-APC-Cy7 where indicated (BioLegend) and the top 1–2% of GFP^+CD69^+ cells were sorted for genomic DNA extraction, indexing and sequencing (see below). Multiplexed assays were scaled on a per-TCR basis (for example 3 × 10^6 for each of three TCRs against 9 × 10^6 library cells). […]

[2] = system: BDC2.5 TCR; test: I-Ag7 SABR-II library screen, enrichment score; format: cell-based, mouse; conditions: for Enrichment score: I-Ag7 library; for Enrichment score EXPT1 / Enrichment score EXPT2 / Enrichment score EXPT3 / Enrichment score EXPT5 / Enrichment score EXPT7 / Enrichment score EXPT8: sheet Fig 1F, whole library; for Enrichment score EXPT1: independent biological experiment 1 of 8; for Enrichment score EXPT2: independent biological experiment 2 of 8; for Enrichment score EXPT3: independent biological experiment 3 of 8; for Enrichment score EXPT5: independent biological experiment 5 of 8; for Enrichment score EXPT7: independent biological experiment 7 of 8; for Enrichment score EXPT8: independent biological experiment 8 of 8
From the text: as §1, §2

[3] = EXPT1 of 3 biological experiments
[4] = EXPT1 of 8 biological experiments
[5] = one biological experiment (Ext. Data Fig. 6B)

Row | Sequence | Enrichment score [1, 3] | Enrichment score ([1]; EXPT2 of 3) | Enrichment score ([1]; EXPT3 of 3) | Enrichment score [2, 4] | Enrichment score ([2]; EXPT2 of 8) | Enrichment score ([2]; EXPT3 of 8) | Enrichment score ([2]; EXPT4 of 8) | Enrichment score ([2]; EXPT6 of 8) | Enrichment score ([2]; EXPT7 of 8) | Enrichment score ([2]; EXPT8 of 8) | Enrichment score [2, 5] | Enrichment score EXPT1 [2] | Enrichment score EXPT2 [2] | Enrichment score EXPT3 [2] | Enrichment score EXPT5 [2] | Enrichment score EXPT7 [2] | Enrichment score EXPT8 [2]
1 | AAVEEGIVAGGGVTLL | 6.335e-5 | -6.366e-5 | -1.563e-5 | -2.818e-5 | -9.793e-5 | 0.0001628 | -0.0001173 | 0.0001045 | -9.918e-5 | -0.0001409 | 0.0001628 | -9.793e-5 | -2.818e-5 | 0.0001628 | 9.606e-5 | -9.918e-5 | -0.0001409
2 | AEKVRNLPAGHGLNAQ | -3.1932e-6 | 0.0001517 | -4.244e-5 | 2.296e-5 | 1.2173e-5 | 6.168e-6 | 0.0002539 | -2.745e-5 | 9.062e-5 | 9.25e-5 | 6.168e-6 | 1.2173e-5 | 2.296e-5 | 6.168e-6 | 8.842e-5 | 9.062e-5 | 9.25e-5
3 | AGGVAVIKAGAATEV | 2.615e-5 | -2.489e-5 | 4.9e-5 | -4.65e-5 | 5.397e-5 | 2.078e-5 | 2.834e-5 | -5.5015e-5 | -7.0061e-5 | -2.822e-5 | 2.078e-5 | 5.397e-5 | -4.65e-5 | 2.078e-5 | 9.8885e-5 | -7.0061e-5 | -2.822e-5
4 | AKAAVEEGIVAGGGV | -1.842e-5 | 0.0001302 | -6.807e-5 | -0.0001132 | -8.351e-5 | -9.939e-5 | 5.807e-5 | 0.0001711 | 8.834e-6 | 1.023e-7 | -9.939e-5 | -8.351e-5 | -0.0001132 | -9.939e-5 | 0.0002581 | 8.834e-6 | 1.023e-7
5 | ALVREGLRNVAAGANP | -1.064e-5 | -1.266e-5 | -8.85e-6 | -1.509e-5 | -2.732e-5 | -2.567e-5 | -1.199e-5 | -1.468e-5 | -1.252e-5 | -2.71e-5 | -2.567e-5 | -2.732e-5 | -1.509e-5 | -2.567e-5 | -3.182e-5 | -1.252e-5 | -2.71e-5
